In US6452009B1, “4-unsubstituted dihydroisoquinolinone derivatives and combinatorial libraries thereof” (Lion Bioscience AG, priority 1999, dated 2002):

These compounds were tested on Streptococcus pyogenes (ATCC #97-03 14289) (assay: Anti-microbial screen (growth inhibition, OD 570 nm)). Conditions: ATCC97, 4 h.
Assay type: cell-based
Procedure: Streptococcus pyogenes (ATCC #97-03 14289) are grown in Todd Hewitt Broth (THB) (Difco Laboratories #0492-17-6) overnight until they reach an optical density of (OD=0.636@570 nm) by reading 0.1 ml in a 96 well microtiter plate in a Molecular Devices Thermomax. This preparation is kept frozen as stocks in 30% v/v glycerol in 1.5 ml aliquots at −70° C. until use. Prior to screening, 1.5 ml aliquots are thawed and diluted into 50 ml THB. 200 μl of this dilution is added to 92 wells of microtiter plate. To three wells THB (200 μl) is added to serve as a blank and a sterility control. Test compounds in DMSO and appropriate concentrations of DMSO are added to Growth/Solvent Controls at 0 time. Plates are read at 0 time at 570 nm in the Molecular Devices plate reader to obtain compounds correction factors for insoluble or colored compounds. Plates are read again at 4 hrs.
Compounds are assayed at a concentration of 170 μg/ml. Percent inhibition for each compound is calculated using the following formulae:
Color correct=(O.D. 0 hr −Blank 0 hr)—(Solvent Control 0 hr−Blank 0 hr)
% Inhibition=100−(O.D. test compound 4 hr−Blank 4 hr−color correct) divided by (O.D. growth/solvent control 4 hr−Blank 4 hr)

SMILES	inhibition at 170 µg/mL
C=CCN(CC(N)=O)C(=O)CCN1C(=O)c2cc(NC(=O)CP(=O)(OCC)OCC)ccc2CC1c1cccc(Oc2ccc(Cl)c(Cl)c2)c1 (stereo not drawn)	98.5%
CCOP(=O)(CC(=O)Nc1ccc2c(c1)C(=O)N(CCC(=O)N(CCN(C)C)CC(N)=O)C(c1ccc(C(F)(F)F)cc1)C2)OCC (stereo not drawn)	98.9%

Same assay, conditions: ATCC97, compounds assayed at 170 μg/ml, growth in Todd Hewitt Broth read at 570 nm at 4 hrs, read-out: % Inhibition

SMILES	inhibition at 170 µg/mL
CSc1ccc(C2Cc3ccc(NC(=O)CC(C)CC(C)(C)C)cc3C(=O)N2Cc2ccc(C(=O)N(CCN(C)C)CC(N)=O)cc2)cc1 (stereo not drawn)	99.5%
CN(C)CCN(CC(N)=O)C(=O)CCN1C(=O)c2cc(NC(=O)c3cccc(C(F)(F)F)c3F)ccc2CC1c1ccc(C(F)(F)F)cc1 (stereo not drawn)	99.9%
CN(C)CCN(CC(N)=O)C(=O)CCN1C(=O)c2cc(NC(=O)C3(c4ccccc4)CC3)ccc2CC1c1ccccc1 (stereo not drawn)	99.5%
COc1ccc(Br)c(C(=O)Nc2ccc3c(c2)C(=O)N(Cc2ccc(C(=O)N(CCN(C)C)CC(N)=O)cc2)C(c2ccc(F)c(F)c2)C3)c1 (stereo not drawn)	99.5%
CN(C)CCN(CC(N)=O)C(=O)CCN1C(=O)c2cc(NC(=O)CCC3CCCC3)ccc2CC1c1cccc2ccccc12 (stereo not drawn)	99.8%
CN(C)CCCOc1ccc(C2Cc3ccc(NC(=O)CCC4CCCC4)cc3C(=O)N2CCC(=O)N(CC(N)=O)C2CC2)cc1 (stereo not drawn)	98.2%
CCCCCCCC(=O)Nc1ccc2c(c1)C(=O)N(CCC(=O)N(CCN(C)C)CC(N)=O)C(c1ccc(F)c(F)c1)C2 (stereo not drawn)	98.4%
CN(C)CCCOc1ccc(C2Cc3ccc(NC(=O)COc4ccc5ccccc5c4)cc3C(=O)N2Cc2ccc(C(=O)N(CCN(C)C)CC(N)=O)cc2)cc1 (stereo not drawn)	98.6%
CCCC(CCC)C(=O)Nc1ccc2c(c1)C(=O)N(CCC(=O)N(CCN(C)C)CC(N)=O)C(c1cc(OC)cc(OC)c1)C2 (stereo not drawn)	98.2%
CN(C)CCN(CC(N)=O)C(=O)CCN1C(=O)c2cc(NC(=O)CC3CC4CCC3C4)ccc2CC1c1ccc(C(F)(F)F)cc1 (stereo not drawn)	99.2%
CN(C)CCCOc1ccc(C2Cc3ccc(NC(=O)Cc4cccc(C(F)(F)F)c4)cc3C(=O)N2CCC(=O)N(CCN(C)C)CC(N)=O)cc1 (stereo not drawn)	99.8%
CN(C)CCN(CC(N)=O)C(=O)c1ccc(CN2C(=O)c3cc(NC(=O)CC4CC5CCC4C5)ccc3CC2c2cccc3ccccc23)cc1 (stereo not drawn)	99.5%
CN(C)CCCOc1ccc(C2Cc3ccc(NC(=O)CCC4CCCC4)cc3C(=O)N2Cc2ccc(C(=O)N(CC(N)=O)Cc3ccccc3)cc2)cc1 (stereo not drawn)	99.5%
CN(C)CCCOc1ccc(C2Cc3ccc(NC(=O)CC4CC5CCC4C5)cc3C(=O)N2Cc2ccc(C(=O)N(CC(N)=O)Cc3ccccc3)cc2)cc1 (stereo not drawn)	98.2%
NC(=O)CN(Cc1ccccc1)C(=O)CCN1C(=O)c2cc(NC(=O)CCC3CCCC3)ccc2CC1c1cccc2ccccc12 (stereo not drawn)	98.4%
COc1cc(OC)cc(C2Cc3ccc(NC(=O)Cc4cccc(C(F)(F)F)c4)cc3C(=O)N2Cc2ccc(C(=O)N(CCN(C)C)CC(N)=O)cc2)c1 (stereo not drawn)	99.2%
CN(C)CCN(CC(N)=O)C(=O)CCN1C(=O)c2cc(NC(=O)C3(c4ccccc4)CC3)ccc2CC1c1cccc2ccccc12 (stereo not drawn)	99%
Cc1nnsc1C(=O)Nc1ccc2c(c1)C(=O)N(CCC(=O)N(CCN(C)C)CC(N)=O)C(c1cccc3ccccc13)C2 (stereo not drawn)	99%
Cc1cc(C)c(C(=O)C(=O)Nc2ccc3c(c2)C(=O)N(CCC(=O)N(CCN(C)C)CC(N)=O)C(c2ccc(C(F)(F)F)cc2)C3)c(C)c1 (stereo not drawn)	98.9%
Cc1ccc(C2Cc3ccc(NC(=O)COc4ccc5ccccc5c4)cc3C(=O)N2CCC(=O)N(CCN(C)C)CC(N)=O)cc1 (stereo not drawn)	99.2%
Cc1ccc(C2Cc3ccc(NC(=O)c4ccc(F)c(F)c4)cc3C(=O)N2Cc2ccc(C(=O)N(CCN(C)C)CC(N)=O)cc2)cc1 (stereo not drawn)	98.5%
CC(CC(=O)Nc1ccc2c(c1)C(=O)N(Cc1ccc(C(=O)N(CCN(C)C)CC(N)=O)cc1)C(c1ccc(C(F)(F)F)cc1)C2)CC(C)(C)C (stereo not drawn)	98.7%
CN(C)CCN(CC(N)=O)C(=O)CCN1C(=O)c2cc(NC(=O)c3ccco3)ccc2CC1c1cccc2ccccc12 (stereo not drawn)	98.2%
CCCCCCCC(=O)Nc1ccc2c(c1)C(=O)N(CCC(=O)N(CC(N)=O)Cc1cccc(C(F)(F)F)c1)C(c1ccc(OCCCN(C)C)cc1)C2 (stereo not drawn)	98.5%
CN(C)CCN(CC(N)=O)C(=O)CCN1C(=O)c2cc(NC(=O)c3ccc(I)cc3)ccc2CC1c1ccccn1 (stereo not drawn)	99.2%
COc1cc(OC)cc(C2Cc3ccc(NC(=O)c4ccc(OC(F)(F)F)cc4)cc3C(=O)N2CCC(=O)N(CCN(C)C)CC(N)=O)c1 (stereo not drawn)	99.5%
Cc1cc(C)c(C(=O)C(=O)Nc2ccc3c(c2)C(=O)N(CCC(=O)N(CCN(C)C)CC(N)=O)C(c2ccc4ccccc4n2)C3)c(C)c1 (stereo not drawn)	99.2%
CCCC(CCC)C(=O)Nc1ccc2c(c1)C(=O)N(Cc1ccc(C(=O)N(CCN(C)C)CC(N)=O)cc1)C(c1cc(OC)cc(OC)c1)C2 (stereo not drawn)	99.3%

SMILES	inhibition at 170 µg/mL
Cc1ccc(C2Cc3ccc(NC(=O)c4cc(C(F)(F)F)cc(C(F)(F)F)c4)cc3C(=O)N2CCC(=O)N(CCN(C)C)CC(N)=O)cc1 (stereo not drawn)	99.2%
CN(C)CCCOc1ccc(C2Cc3ccc(NC(=O)COc4ccc5ccccc5c4)cc3C(=O)N2CCC(=O)N(CC(N)=O)Cc2cccc(C(F)(F)F)c2)cc1 (stereo not drawn)	99.6%
CCCN(CC(N)=O)C(=O)c1ccc(CN2C(=O)c3cc(NC(=O)c4ccc(OC(F)(F)F)cc4)ccc3CC2c2ccc(OCCCN(C)C)cc2)cc1 (stereo not drawn)	99.7%
CN(C)CCN(CC(N)=O)C(=O)CCN1C(=O)c2cc(NC(=O)c3cccc(C(F)(F)F)c3F)ccc2CC1c1ccccc1 (stereo not drawn)	99.2%
CN(C)CCN(CC(N)=O)C(=O)CCN1C(=O)c2cc(NC(=O)CC3CC4CCC3C4)ccc2CC1c1ccc(F)c(F)c1 (stereo not drawn)	98.4%
CN(C)CCN(CC(N)=O)C(=O)CCN1C(=O)c2cc(NC(=O)CC3CCCC3)ccc2CC1c1ccc(C(C)(C)C)cc1 (stereo not drawn)	99.5%
CN(C)CCN(CC(N)=O)C(=O)c1ccc(CN2C(=O)c3cc(NC(=O)c4cccc(C(F)(F)F)c4F)ccc3CC2c2ccccc2)cc1 (stereo not drawn)	98.3%
CN(C)CCN(CC(N)=O)C(=O)CCN1C(=O)c2cc(NC(=O)c3ccccc3F)ccc2CC1c1ccc(C(C)(C)C)cc1 (stereo not drawn)	98.2%
COc1cc(OC)cc(C2Cc3ccc(NC(=O)c4ccc(F)c(F)c4)cc3C(=O)N2CCC(=O)N(CCN(C)C)CC(N)=O)c1 (stereo not drawn)	99.5%
CN(C)CCN(CC(N)=O)C(=O)CCN1C(=O)c2cc(NC(=O)c3cnccn3)ccc2CC1c1cccc2ccccc12 (stereo not drawn)	99%
CN(C)CCN(CC(N)=O)C(=O)CCN1C(=O)c2cc(NC(=O)COc3ccc4ccccc4c3)ccc2CC1c1ccc(F)c(F)c1 (stereo not drawn)	99.2%
CSc1ccccc1C(=O)Nc1ccc2c(c1)C(=O)N(Cc1ccc(C(=O)N(CCN(C)C)CC(N)=O)cc1)C(c1ccc(C(F)(F)F)cc1)C2 (stereo not drawn)	98.3%
CN(C)CCCOc1ccc(C2Cc3ccc(NC(=O)C4(c5ccccc5)CC4)cc3C(=O)N2Cc2ccc(C(=O)N(CC(N)=O)Cc3cccc(C(F)(F)F)c3)cc2)cc1 (stereo not drawn)	98.8%
CN(C)CCN(CC(N)=O)C(=O)CCN1C(=O)c2cc(NC(=O)c3cc(C(F)(F)F)cc(C(F)(F)F)c3)ccc2CC1c1ccc2ccccc2n1 (stereo not drawn)	98.2%
CCCCCC/C=C/C(=O)Nc1ccc2c(c1)C(=O)N(CCC(=O)N(CCN(C)C)CC(N)=O)C(c1ncc[nH]1)C2 (stereo not drawn)	99.4%
Cc1cnc(C(=O)Nc2ccc3c(c2)C(=O)N(CCC(=O)N(CCN(C)C)CC(N)=O)C(c2ccc(C(C)(C)C)cc2)C3)cn1 (stereo not drawn)	98.5%
NC(=O)CN(Cc1cccc(C(F)(F)F)c1)C(=O)CCN1C(=O)c2cc(NC(=O)CCC3CCCC3)ccc2CC1c1cccc(Oc2ccc(Cl)c(Cl)c2)c1 (stereo not drawn)	98.7%
Cc1cc(C)c(C(=O)C(=O)Nc2ccc3c(c2)C(=O)N(Cc2ccc(C(=O)N(CCN(C)C)CC(N)=O)cc2)C(c2ccc4ccccc4n2)C3)c(C)c1 (stereo not drawn)	99.2%
CN(C)CCCOc1ccc(C2Cc3ccc(NC(=O)CCC4CCCC4)cc3C(=O)N2CCC(=O)N(CCN(C)C)CC(N)=O)cc1 (stereo not drawn)	98.6%
CN(C)CCN(CC(N)=O)C(=O)c1ccc(CN2C(=O)c3cc(NC(=O)CC4CC5CCC4C5)ccc3CC2c2ccc(C(F)(F)F)cc2)cc1 (stereo not drawn)	98.1%
COc1cccc(CN(CC(N)=O)C(=O)CCN2C(=O)c3cc(NC(=O)CC4CC5CCC4C5)ccc3CC2c2ccc(OCCCN(C)C)cc2)c1 (stereo not drawn)	98.8%
CN(C)CCN(CC(N)=O)C(=O)c1ccc(CN2C(=O)c3cc(NC(=O)CCC4CCCC4)ccc3CC2c2ccc(C(F)(F)F)cc2)cc1 (stereo not drawn)	99%
CN(C)CCN(CC(N)=O)C(=O)c1ccc(CN2C(=O)c3cc(NC(=O)CCC4CCCC4)ccc3CC2c2ccc3ccccc3n2)cc1 (stereo not drawn)	98.6%
CN(C)CCN(CC(N)=O)C(=O)c1ccc(CN2C(=O)c3cc(NC(=O)c4ccc(I)cc4)ccc3CC2c2cccnc2)cc1 (stereo not drawn)	98.8%
CN(C)CCN(CC(N)=O)C(=O)c1ccc(CN2C(=O)c3cc(NC(=O)c4cc(C(F)(F)F)cc(C(F)(F)F)c4)ccc3CC2c2ncc[nH]2)cc1 (stereo not drawn)	98.7%
CN(C)CCN(CC(N)=O)C(=O)c1ccc(CN2C(=O)c3cc(NC(=O)c4ccc(OC(F)(F)F)cc4)ccc3CC2c2cccc(C#N)c2)cc1 (stereo not drawn)	99.5%
COc1cc(OC)cc(C2Cc3ccc(NC(=O)C4CCC(C)CC4)cc3C(=O)N2CCC(=O)N(CCN(C)C)CC(N)=O)c1 (stereo not drawn)	99.8%
